Tests used:
Format in all cases: functional
HOP-92 = assay: Cytotoxicity against human HOP92 cells assessed as growth inhibition at 10 uM after 48 hrs by SRB assay; conditions: HOP-92, 48 h, read-out: GI
MDA-MB-435 = assay: Cytotoxicity against human MDA-MB-435 cells assessed as cell growth at 10^-7 M after 48 hrs by SRB assay; conditions: MDA-MB-435, 48 h, read-out: Activity
786-0 [1] = assay: Cytotoxicity against human 786-0 cells assessed as cell growth at 10^-6 M after 48 hrs by SRB assay; conditions: 786-0, 48 h, read-out: Activity
IGROV-1 = assay: Cytotoxicity against human IGROV1 cells after 48 hrs by SRB assay; conditions: IGROV-1, 48 h
HCC 2998 [2] = assay: Cytotoxicity against human HCC2998 cells assessed as cell growth at 10^-8 M after 48 hrs by SRB assay; conditions: HCC 2998, 48 h, read-out: Activity
RXF 393 = assay: Cytotoxicity against human RXF393 cells after 48 hrs by SRB assay; conditions: RXF 393, 48 h
RPMI-8226 = assay: Cytotoxicity against human RPMI8226 cells assessed as cell growth at 10^-7 M after 48 hrs by SRB assay; conditions: RPMI-8226, 48 h, read-out: Activity
[3] = Cytotoxicity against human OVCAR4 cells assessed as cell growth at 10^-7 M after 48 hrs by SRB assay; conditions: OVCAR-4, 48 h, read-out: Activity
OVCAR-3 [4] = assay: Cytotoxicity against human OVCAR3 cells assessed as cell growth at 10^-6 M after 48 hrs by SRB assay; conditions: OVCAR-3, 48 h, read-out: Activity
COLO 205 = assay: Cytotoxicity against human COLO205 cells assessed as cell growth at 10^-8 M after 48 hrs by SRB assay; conditions: COLO 205, 48 h, read-out: Activity
NCI-H23 [5] = assay: Cytotoxicity against human NCI-H23 cells assessed as cell growth at 10^-8 M after 48 hrs by SRB assay; conditions: NCI-H23, 48 h, read-out: Activity
786-0 [6] = assay: Cytotoxicity against human 786-0 cells assessed as cell growth at 10^-4 M after 48 hrs by SRB assay; conditions: 786-0, 48 h, read-out: Activity
TK-10 = assay: Cytotoxicity against human TK10 cells assessed as cell growth at 10^-8 M after 48 hrs by SRB assay; conditions: TK-10, 48 h, read-out: Activity
SF-539 = assay: Cytotoxicity against human SF539 cells after 48 hrs by SRB assay; conditions: SF-539, 48 h
SF-295 [7] = assay: Cytotoxicity against human SF295 cells assessed as cell growth at 10^-4 M after 48 hrs by SRB assay; conditions: SF-295, 48 h, read-out: Activity
NCI-H522 = assay: Cytotoxicity against human NCI-H522 cells assessed as cell growth at 10^-6 M after 48 hrs by SRB assay; conditions: NCI-H522, 48 h, read-out: Activity
SNB-19 [8] = assay: Cytotoxicity against human SNB19 cells assessed as cell growth at 10^-8 M after 48 hrs by SRB assay; conditions: SNB-19, 48 h, read-out: Activity
SF-295 [9] = assay: Cytotoxicity against human SF295 cells assessed as cell growth at 10^-6 M after 48 hrs by SRB assay; conditions: SF-295, 48 h, read-out: Activity
T47D [10] = assay: Cytotoxicity against human T47D cells assessed as cell growth at 10^-4 M after 48 hrs by SRB assay; conditions: read-out: Activity
MDA-MB-231 = assay: Cytotoxicity against human MDA-MB-231 cells assessed as cell growth at 10^-4 M after 48 hrs by SRB assay; conditions: MDA-MB-231, 48 h, read-out: Activity
NCI-H322M = assay: Cytotoxicity against human NCI-H322M cells after 48 hrs by SRB assay
SR = assay: Cytotoxicity against human SR cells after 48 hrs by SRB assay
HCC 2998 [11] = assay: Cytotoxicity against human HCC2998 cells assessed as cell growth at 10^-6 M after 48 hrs by SRB assay; conditions: HCC 2998, 48 h, read-out: Activity
786-0 [12] = assay: Cytotoxicity against human 786-0 cells assessed as cell growth at 10^-8 M after 48 hrs by SRB assay; conditions: 786-0, 48 h, read-out: Activity
CCRF-CEM [13] = assay: Cytotoxicity against human CCRF-CEM cells assessed as cell growth at 10^-8 M after 48 hrs by SRB assay; conditions: read-out: Activity
T47D [14] = assay: Cytotoxicity against human T47D cells assessed as cell growth at 10^-8 M after 48 hrs by SRB assay; conditions: read-out: Activity
CCRF-CEM [15] = assay: Cytotoxicity against human CCRF-CEM cells assessed as cell growth at 10^-7 M after 48 hrs by SRB assay; conditions: read-out: Activity
SK-OV-3 = assay: Cytotoxicity against human SKOV3 cells assessed as cell growth at 10^-7 M after 48 hrs by SRB assay; conditions: SK-OV-3, 48 h, read-out: Activity
OVCAR-3 [16] = assay: Cytotoxicity against human OVCAR3 cells after 48 hrs by SRB assay; conditions: OVCAR-3, 48 h
PC-3 [17] = assay: Cytotoxicity against human PC3 cells assessed as cell growth at 10^-4 M after 48 hrs by SRB assay; conditions: PC-3, 48 h, read-out: Activity
SF-268 = assay: Cytotoxicity against human SF268 cells assessed as cell growth at 10^-6 M after 48 hrs by SRB assay; conditions: SF-268, 48 h, read-out: Activity
U-251 = assay: Cytotoxicity against human U251 cells assessed as cell growth at 10^-8 M after 48 hrs by SRB assay; conditions: U-251, 48 h, read-out: Activity
SNB-19 [18] = assay: Cytotoxicity against human SNB19 cells after 48 hrs by SRB assay; conditions: SNB-19, 48 h
SK-MEL-5 = assay: Cytotoxicity against human SK-MEL-5 cells after 48 hrs by SRB assay; conditions: SK-MEL-5, 48 h
PC-3 [19] = assay: Cytotoxicity against human PC3 cells assessed as cell growth at 10^-6 M after 48 hrs by SRB assay; conditions: PC-3, 48 h, read-out: Activity
SNB-19 [20] = assay: Cytotoxicity against human SNB19 cells assessed as cell growth at 10^-6 M after 48 hrs by SRB assay; conditions: SNB-19, 48 h, read-out: Activity
[21] = Cytotoxicity against human Hs578T cells assessed as cell growth at 10^-6 M after 48 hrs by SRB assay; conditions: Hs-578T, read-out: Activity
NCI-H23 [22] = assay: Cytotoxicity against human NCI-H23 cells assessed as cell growth at 10^-4 M after 48 hrs by SRB assay; conditions: NCI-H23, 48 h, read-out: Activity
OVCAR-3 [23] = assay: Cytotoxicity against human OVCAR3 cells assessed as cell growth at 10^-7 M after 48 hrs by SRB assay; conditions: OVCAR-3, 48 h, read-out: Activity

## C=CCn1c(C)nc2ccc(Nc3nc(NCCO)nc4ccccc34)cc21
HOP-92
  inhibition of growth at 10 µM: 30%

## C=CCn1c(C)nc2cc(Nc3nc(NCCO)nc4ccccc34)ccc21
HOP-92
  inhibition of growth at 10 µM: 40%

## C=CCn1c(C)nc2ccc(Nc3nc(Nc4ccc5nc(C)n(CC=C)c5c4)c4ccccc4n3)cc21
MDA-MB-435
  growth at 0.1 µM: 98%
786-0 [1]
  growth at 1 µM: 92%
IGROV-1
  GI50: 1830 nM
  TGI: 3400 nM
HCC 2998 [2]
  growth at 0.01 µM: 92%
RXF 393
  GI50: 1800 nM
  TGI: 3280 nM
RPMI-8226
  growth at 0.1 µM: 99%
[3]
  growth at 0.1 µM: 95%
OVCAR-3 [4]
  growth at 1 µM: 94%
COLO 205
  growth at 0.01 µM: 105%
NCI-H23 [5]
  growth at 0.01 µM: 96%
786-0 [6]
  growth at 100 µM: -18%
TK-10
  growth at 0.01 µM: 100%
SF-539
  GI50: 1710 nM
  LC50 (concentration giving 50% net cell kill): 5710 nM
  TGI: 3120 nM
SF-295 [7]
  growth at 100 µM: -21%
NCI-H522
  growth at 1 µM: 114%
SNB-19 [8]
  growth at 0.01 µM: 92%
SF-295 [9]
  growth at 1 µM: 97%
T47D [10]
  growth at 100 µM: -22%
MDA-MB-231
  growth at 100 µM: -63%
NCI-H322M
  GI50: 1710 nM
  LC50: 6150 nM
  TGI: 3240 nM
SR
  GI50: 1520 nM
  LC50: > 100000 nM
  TGI: 3980 nM
HCC 2998 [11]
  growth at 1 µM: 96%
HOP-92
  inhibition of growth at 10 µM: 50%
786-0 [12]
  growth at 0.01 µM: 98%
CCRF-CEM [13]
  growth at 0.01 µM: 97%
T47D [14]
  growth at 0.01 µM: 96%
CCRF-CEM [15]
  growth at 0.1 µM: 96%
SK-OV-3
  growth at 0.1 µM: 95%
OVCAR-3 [16]
  GI50: 1700 nM
  TGI: 3080 nM
PC-3 [17]
  growth at 100 µM: -46%
SF-268
  growth at 1 µM: 79%
U-251
  growth at 0.01 µM: 96%
SNB-19 [18]
  GI50: 1690 nM
  TGI: 3560 nM
SK-MEL-5
  GI50: 1650 nM
  TGI: 3030 nM
PC-3 [19]
  growth at 1 µM: 71%
SNB-19 [20]
  growth at 1 µM: 85%
[21]
  growth at 1 µM: 81%
NCI-H23 [22]
  growth at 100 µM: -42%
OVCAR-3 [23]
  growth at 0.1 µM: 96%

## C=CCn1c(C)nc2cc(Nc3nc(Nc4ccc5nc(C)n(CC=C)c5c4)c4ccccc4n3)ccc21
MDA-MB-435
  growth at 0.1 µM: 97%
786-0 [1]
  growth at 1 µM: -78%
IGROV-1
  GI50: 1540 nM
  TGI: 3010 nM
HCC 2998 [2]
  growth at 0.01 µM: 99%
RXF 393
  GI50: 373 nM
  TGI: 1790 nM
RPMI-8226
  growth at 0.1 µM: 100%
[3]
  growth at 0.1 µM: 102%
OVCAR-3 [4]
  growth at 1 µM: -78%
COLO 205
  growth at 0.01 µM: 101%
NCI-H23 [5]
  growth at 0.01 µM: 95%
786-0 [6]
  growth at 100 µM: -21%
TK-10
  growth at 0.01 µM: 96%
SF-539
  GI50: 1100 nM
  LC50 (concentration giving 50% net cell kill): 4790 nM
  TGI: 2300 nM
SF-295 [7]
  growth at 100 µM: -85%
NCI-H522
  growth at 1 µM: -83%
SNB-19 [8]
  growth at 0.01 µM: 91%
SF-295 [9]
  growth at 1 µM: 78%
T47D [10]
  growth at 100 µM: -13%
MDA-MB-231
  growth at 100 µM: -46%
NCI-H322M
  GI50: 717 nM
  LC50: 4470 nM
  TGI: 2000 nM
SR
  GI50: 222 nM
  LC50: > 100000 nM
HCC 2998 [11]
  growth at 1 µM: 63%
786-0 [12]
  growth at 0.01 µM: 99%
CCRF-CEM [13]
  growth at 0.01 µM: 105%
T47D [14]
  growth at 0.01 µM: 92%
CCRF-CEM [15]
  growth at 0.1 µM: 107%
SK-OV-3
  growth at 0.1 µM: 106%
OVCAR-3 [16]
  GI50: 192 nM
  LC50: 701 nM
  TGI: 367 nM
PC-3 [17]
  growth at 100 µM: -41%
SF-268
  growth at 1 µM: 52%
U-251
  growth at 0.01 µM: 97%
SNB-19 [18]
  GI50: 1080 nM
  TGI: 2620 nM
SK-MEL-5
  GI50: 1590 nM
  TGI: 3690 nM
PC-3 [19]
  growth at 1 µM: 1%
SNB-19 [20]
  growth at 1 µM: 54%
[21]
  growth at 1 µM: 94%
NCI-H23 [22]
  growth at 100 µM: -28%
OVCAR-3 [23]
  growth at 0.1 µM: 101%

From ChEMBL document CHEMBL3112450, “Synthesis and in vitro antitumor evaluation of primary amine substituted quinazoline linked benzimidazole” (Bioorg Med Chem Lett, 2014)
